Here are results for 4 compounds from publication PMC10815238, “New N-Terminal Fatty-Acid-Modified Melittin Analogs with Potent Biological Activity” (International Journal of Molecular Sciences, 2024).

One data set relates to E. coli ATCC 25922. Nature of the data set: Salt sensitivity (MIC in the presence of physiological salts). The data set is classed as cell-based, Escherichia coli. Further details: key to MIC, NaCl / MIC, KCl / MIC, MgCl2: MIC in μg/mL (two-fold dilutions 256 to 0.25 μg/mL). Particulars: for MIC, MgCl2: 1 mM MgCl2, unit not given in Table 4; for MIC, FeCl3: 4 mM FeCl3, unit not given in Table 4; for MIC, KCl: 4.5 mM KCl; for MIC, KCl / MIC, NaCl: unit not given in Table 4; for MIC, NaCl: 150 mM NaCl; for MIC, Control: no added salt, unit not given in Table 4 (Table 3 MIC in μg/mL). The protocol: (§1) MIC was determined using the broth microdilution method with minor modification. In brief, bacteria (S. aureus ATCC 43300, E. faecalis ATCC 29212, E. coli ATCC 25922, P. aeruginosa ATCC 27853, L. monocytogenes CVCC 3764, B. cereus CVCC 4101, S. Castellani CGMCC 1.1869, and the multidrug-resistant E. coli strain) were cultured in nutrient broth (NB) medium (Macklin, Shanghai, China) to the logarithmic phase and diluted to 1 × 10^6 colony forming units (CFUs)/mL. The MDLs were dissolved to a final concentration of 256~0.25 μg/mL in NB medium using two-fold dilutions. A total of 50 μL of different concentrations of the MDL solutions and an equal volume of bacterial suspension were added to a 96-well plate, which was then incubated at 37 °C for 18 h. The minimum concentrations of the MDLs with no visible growth of bacteria were defined as the corresponding MICs. Media containing bacteria without the MDLs were set as the negative control. Each measurement was performed independently three times.
(§2) This was carried out in triplicate and tested at least twice.

A short description of data set [1]: CD measurements of secondary structure. Type of data set: physicochemical. Particulars: 0.5 mg/mL, 25 °C. The protocol: The CD spectra of the MDLs were measured at 25 °C on a Chirascan spectrometer (Applied Photophysics, Surrey, UK) using a quartz cell with a 1.0 mm path length, recording from 180 to 260 nm. A scanning speed of 50 nm/min was used and the bandwidth was 1 nm. The optical path and slit width were 0.1 cm and 0.1 nm, respectively. […], 50% TFE (Macklin, Shanghai, China) was used to mimic the hydrophobic condition of the microbial membrane, and 25 mM SDS (Macklin, Shanghai, China) micelles were used to mimic the negatively charged prokaryotic membrane. The observed ellipticity was converted to molar ellipticity using the following equation: θ=θobs(MRW/10×c×l) where [θ] is the molar ellipticity (deg·cm^2·dmol^−1), θobs is the observed ellipticity corrected for the buffer at a given wavelength (mdeg), MRW is the mean residual molecular weight (molecular weight/number of amino acids), c is the peptide concentration (mg/mL), and l is the path length (cm). Assuming lipopeptides were a two-state model, the percentage in the α-helix structure of the MDLs was calculated using the following equation: α-helical content=−([θ]222 +2000)/30,000×100%

For the next data set, the system named is S. aureus ATCC 43300. Nature of the data set: Salt sensitivity (MIC in the presence of physiological salts). Type of data set: cell-based, Staphylococcus aureus. On the set-up: key: MIC in μg/mL (two-fold dilutions 256 to 0.25 μg/mL). Particulars: for MIC, MgCl2: 1 mM MgCl2, unit not given in Table 4; for MIC, FeCl3: 4 mM FeCl3, unit not given in Table 4; for MIC, KCl: 4.5 mM KCl; for MIC, KCl / MIC, NaCl: unit not given in Table 4; for MIC, NaCl: 150 mM NaCl; for MIC, Control: no added salt, unit not given in Table 4 (Table 3 MIC in μg/mL). The protocol:
as §1, §2

Data set [2] is described as follows: Hydrophobicity assay (RP-HPLC retention time). Type of data set: physicochemical. Conditions: chromatographic, ChromCore120 C18 column 4.6 x 250 mm 5 μm; 0.1 mg/mL in deionized water; A 0.1% TFA in water, B 0.1% TFA in acetonitrile; 5% B to 90% B over 30 min; 1 mL/min; UV 220 nm; three independent experiments. The text has this: The hydrophobicity, amphipathicity, and positive charge distribution of lipopeptides are crucial for their antimicrobial activities. Among these, hydrophobicity has been deemed essential for promoting a hydrophobic interaction with the lipid bilayer, leading to membrane disruption, cytoplasm leakage, and eventual cell death. Lipopeptides with different peptide sequences and chain lengths usually show different hydrophobicities, generating different RTs in the RP-HPLC analysis. The more hydrophobic the lipopeptide, the longer the RT on the column.
Each MDL was dissolved and diluted to 0.1 mg/mL in deionized water (obtained in-house) and then subjected to RP-HPLC on a ChromCore120 C18 column (4.6 × 250 mm, 5 μm) (NanoChrom, Suzhou, China) using 0.1% trifluoroacetic acid (TFA) (Macklin, Shanghai, China) in water as solvent A and 0.1% TFA in acetonitrile (Merck, Darmstadt, Germany) as solvent B. The elution gradient was as follows: 5% B to 90% B over 30 min, 90% B maintained for 2 min, and 90% B to 5% B over 1 min. The flow rate was 1 mL/min and measurements were taken at 220 nm. The retention time was recorded for each MDL.

For the compound `CCCCCCCCCCCCCC(=O)NCC(=O)N[C@H](C(=O)NCC(=O)N[C@@H](C)C(=O)N[C@H](C(=O)N[C@@H](CC(C)C)C(=O)N[C@@H](CCCCN)C(=O)N[C@H](C(=O)N[C@@H](CC(C)C)C(=O)N[C@H](C(=O)N[C@H](C(=O)NCC(=O)N[C@@H](CC(C)C)C(=O)N1CCC[C@H]1C(=O)N[C@@H](C)C(=O)N[C@@H](CC(C)C)C(=O)N[C@H](C(=O)N[C@@H](CO)C(=O)N[C@@H](Cc1c[nH]c2ccccc12)C(=O)N[C@H](C(=O)N[C@@H](CCCCN)C(=O)N[C@@H](CCCNC(=N)N)C(=O)N[C@@H](CCCCN)C(=O)N[C@@H](CCCNC(=N)N)C(=O)N[C@@H](CCC(N)=O)C(=O)N[C@@H](CCC(N)=O)C(N)=O)[C@@H](C)CC)[C@@H](C)CC)[C@@H](C)O)[C@@H](C)O)C(C)C)C(C)C)[C@@H](C)CC` [Peptide C14-Mel], in the data set with E. coli ATCC 25922, the “MIC, MgCl2” value is 256; the “MIC, FeCl3” value was 256; the “MIC, KCl” value was 64; the “MIC, NaCl” value is recorded as 128. For the same compound, the “MIC, Control” value in the data set on E. coli ATCC 25922 amounted to 32. In data set [1] (25 mM SDS), the “α-Helix, %” value turned out to be 15.5% and the “β-Fold, %” value turned out to be 31.7%. In data set [1] (50% TFE), the “α-Helix, %” value is given as 16% and the “β-Fold, %” value came out at 25.2%. In addition, in data set [1] (PBS Buffer), the “α-Helix, %” value came to 12% and the “β-Fold, %” value was 31%. Moreover, in the data set on S. aureus ATCC 43300, the “MIC, MgCl2” value is 256; the “MIC, FeCl3” value came out at 256; the “MIC, KCl” value worked out at 64; the “MIC, NaCl” value is recorded as 64. Also, the “MIC, Control” value in the data set with S. aureus ATCC 43300 was determined as 32. Moreover, the “RT, Min (RP-HPLC retention time, measure of hydrophobicity)” value (“RT, Min” below) in data set [2] worked out at 25.621 ± 0.002 min.

With `CC[C@H](C)[C@H](NC(=O)CNC(C)=O)C(=O)NCC(=O)N[C@@H](C)C(=O)N[C@H](C(=O)N[C@@H](CC(C)C)C(=O)N[C@@H](CCCCN)C(=O)N[C@H](C(=O)N[C@@H](CC(C)C)C(=O)N[C@H](C(=O)N[C@H](C(=O)NCC(=O)N[C@@H](CC(C)C)C(=O)N1CCC[C@H]1C(=O)N[C@@H](C)C(=O)N[C@@H](CC(C)C)C(=O)N[C@H](C(=O)N[C@@H](CO)C(=O)N[C@@H](Cc1c[nH]c2ccccc12)C(=O)N[C@H](C(=O)N[C@@H](CCCCN)C(=O)N[C@@H](CCCNC(=N)N)C(=O)N[C@@H](CCCCN)C(=O)N[C@@H](CCCNC(=N)N)C(=O)N[C@@H](CCC(N)=O)C(=O)N[C@@H](CCC(N)=O)C(N)=O)[C@@H](C)CC)[C@@H](C)CC)[C@@H](C)O)[C@@H](C)O)C(C)C)C(C)C` [Peptide C2-Mel], in the data set with E. coli ATCC 25922, the “MIC, MgCl2” value was determined as 32; the “MIC, FeCl3” value is recorded as 32; the “MIC, KCl” value was found to be 16; the “MIC, NaCl” value was 16. In data set [1] (25 mM SDS), the “α-Helix, %” value came to 20.9% and the “β-Fold, %” value is on record as 19.9%. Also, in data set [1] (50% TFE), the “α-Helix, %” value is 26.5% and the “β-Fold, %” value is reported as 17.8%. Besides, in data set [1] (PBS Buffer), the “α-Helix, %” value worked out at 6% and the “β-Fold, %” value is given as 32.8%. For the same compound, in the data set with S. aureus ATCC 43300, the “MIC, MgCl2” value is 16; the “MIC, FeCl3” value was 16; the “MIC, KCl” value turned out to be 4; the “MIC, NaCl” value turned out to be 4. For the same compound, in the data set with S. aureus ATCC 43300, the “MIC, Control” value amounted to 4. In addition, the “RT, Min” value in data set [2] stood at 12.247 ± 0.021 min.

As to `CCCCCCCCCC(=O)NCC(=O)N[C@H](C(=O)NCC(=O)N[C@@H](C)C(=O)N[C@H](C(=O)N[C@@H](CC(C)C)C(=O)N[C@@H](CCCCN)C(=O)N[C@H](C(=O)N[C@@H](CC(C)C)C(=O)N[C@H](C(=O)N[C@H](C(=O)NCC(=O)N[C@@H](CC(C)C)C(=O)N1CCC[C@H]1C(=O)N[C@@H](C)C(=O)N[C@@H](CC(C)C)C(=O)N[C@H](C(=O)N[C@@H](CO)C(=O)N[C@@H](Cc1c[nH]c2ccccc12)C(=O)N[C@H](C(=O)N[C@@H](CCCCN)C(=O)N[C@@H](CCCNC(=N)N)C(=O)N[C@@H](CCCCN)C(=O)N[C@@H](CCCNC(=N)N)C(=O)N[C@@H](CCC(N)=O)C(=O)N[C@@H](CCC(N)=O)C(N)=O)[C@@H](C)CC)[C@@H](C)CC)[C@@H](C)O)[C@@H](C)O)C(C)C)C(C)C)[C@@H](C)CC` [Peptide C10-Mel], in the data set with E. coli ATCC 25922, the “MIC, MgCl2” value amounted to 32; the “MIC, FeCl3” value is reported as 32; the “MIC, KCl” value turned out to be 16; the “MIC, NaCl” value worked out at 8. Also, the “MIC, Control” value in the data set with E. coli ATCC 25922 came out at 8. Further, in data set [1] (25 mM SDS), the “α-Helix, %” value came out at 17.1% and the “β-Fold, %” value came to 28.8%. Also, in data set [1] (50% TFE), the “α-Helix, %” value was found to be 18.4% and the “β-Fold, %” value turned out to be 22.1%. In addition, in data set [1] (PBS Buffer), the “α-Helix, %” value is recorded as 7.5% and the “β-Fold, %” value stood at 41.1%. In the data set with S. aureus ATCC 43300, the “MIC, MgCl2” value was 32; the “MIC, FeCl3” value stood at 32; the “MIC, KCl” value worked out at 8; the “MIC, NaCl” value is on record as 2. Moreover, in the data set with S. aureus ATCC 43300, the “MIC, Control” value came out at 2. Moreover, in data set [2], the “RT, Min” value was 20.541 ± 0.029 min.

For `CCCCCCCC(=O)NCC(=O)N[C@H](C(=O)NCC(=O)N[C@@H](C)C(=O)N[C@H](C(=O)N[C@@H](CC(C)C)C(=O)N[C@@H](CCCCN)C(=O)N[C@H](C(=O)N[C@@H](CC(C)C)C(=O)N[C@H](C(=O)N[C@H](C(=O)NCC(=O)N[C@@H](CC(C)C)C(=O)N1CCC[C@H]1C(=O)N[C@@H](C)C(=O)N[C@@H](CC(C)C)C(=O)N[C@H](C(=O)N[C@@H](CO)C(=O)N[C@@H](Cc1c[nH]c2ccccc12)C(=O)N[C@H](C(=O)N[C@@H](CCCCN)C(=O)N[C@@H](CCCNC(=N)N)C(=O)N[C@@H](CCCCN)C(=O)N[C@@H](CCCNC(=N)N)C(=O)N[C@@H](CCC(N)=O)C(=O)N[C@@H](CCC(N)=O)C(N)=O)[C@@H](C)CC)[C@@H](C)CC)[C@@H](C)O)[C@@H](C)O)C(C)C)C(C)C)[C@@H](C)CC` [Peptide C8-Mel], in the data set with E. coli ATCC 25922, the “MIC, MgCl2” value came to 8; the “MIC, FeCl3” value is recorded as 8; the “MIC, KCl” value is given as 8; the “MIC, NaCl” value is recorded as 2. In addition, the “MIC, Control” value with E. coli ATCC 25922 amounted to 2. For the same compound, the “α-Helix, %” value in data set [1] (25 mM SDS) is listed as 18.2%. Moreover, the “α-Helix, %” value in data set [1] (50% TFE) is listed as 18.8%. Further, the “α-Helix, %” value in data set [1] (PBS Buffer) amounted to 7%. In the data set on S. aureus ATCC 43300, the “MIC, MgCl2” value turned out to be 8; the “MIC, FeCl3” value was found to be 8; the “MIC, NaCl” value came out at 0.5; the “MIC, Control” value worked out at 0.5. Moreover, in data set [2], the “RT, Min” value was determined as 17.845 ± 0.013 min.
